Test results reported in patent US20130296370A1, “COMPOSITION COMPRISING A PHOTOACTIVATABLE LARVICIDE” (UNIVERSITA DEGLI STUDI DI PADOVA, priority 2010, published 2013).

What was measured:
[1] = system: Aedes aegypti 3rd-4th instar larvae; experiment: Efficacy and residual activity of photolarvicidal formulations; assay type: in vivo; details: for % mortality by incubation time: 12 h irradiation
Procedure: To assess the effect of different C14 loading concentrations on the photolarvicidal activity of the C14-PFP complexes, two photolarvicidal formulates were prepared. The formulates, named C14 PF-5 and C14 PF-50, were obtained by incubating overnight at room temperature under gentle shaking 25 mg of PFP in 500 ml of 5 μM and 50 μM aqueous solutions of C14, respectively. The solutions were filtered using Whatman qualitative filter papers (Whatman International Ltd., UK) and the solid residues, consisting in the C14-PFP complexes, were washed with 10 ml distilled water, oven-dried at 37° C. for 4 hours and stored at room temperature until use. To quantify the amount of bound C14, samples of the two C14-PFP formulates were dissolved in 3 ml of 2% SDS for 2 h under gentle magnetic stirring. The extracted porphyrin was then quantified by spectrophotometric analysis as described above.
All the experiments were carried out in a climatic chamber at 28±2° C. with a regulated photoperiod of 12 hours. Transparent plastic trays, containing 500 ml C14 solutions or spring water were employed. Typically, 5±1 days old, 3rd-early 4th instar Aedes aegypti larvae were used. All the experiments were replicated three times.
Five series of trays were prepared, namely 0.3 μM and 5 μM C14 porphyrin solutions containing 6 mg PFP (wherein PFP means powdered food pellet (PFP) with final particle diameter of 5-500 μm diameter obtained by crushing a standard food pellet for laboratory rodents, namely 4RF18 GLP (Mucedola Srl, Italy) using an electric blender and then sieving at mesh diameter 500 μm); spring water containing 6 mg C14 PF-5 or C14 PF-50 formulate (wherein C14 PF-5 and C14 PF-50, were obtained by incubating overnight at room temperature under gentle shaking 25 mg of PFP in 500 ml of 5 μM and 50 μM aqueous solutions of C14, respectively) and spring water containing 6 mg PFP as a control. Each series was arranged into three groups, which were incubated at a 12 hour photoperiod for 48 hours, one, or two weeks, respectively. At the end of the incubation periods, batches of 100 larvae, having fasted for 24 hours, were introduced into the trays, at 8 pm (beginning of the 12 h-long dark period in the climatic chamber). Larval mortality was evaluated after 12 hours (next day at 8.00 pm) of irradiation.

[2] = Aggregation of C14 by Beer-Lambert titration; assay type: physicochemical; details: aqueous solution; linear plot of Soret band at 424 nm
Procedure: To test the possible occurrence of aggregation processes for this porphyrin, the intensity of the Soret band was titrated as a function of the porphyrin concentration according to the Beer-Lambert law. In a first phase of our investigations, the data were calculated up to a porphyrin concentration of 0.16 mM (FIG. 1A), since the optical density of more concentrated porphyrin solutions became too large even using cuvettes of 0.1 cm optical path. […] This spectral feature is generally attributed to the presence of porphyrin oligomers (Reddi E, Ceccon M, Valduga G, Joni G, Bommer J C, et al. (2002) Photophysical properties and antibacterial activity of meso-substituted cationic porphyrins. Photochem Photobiol 75: 462-470). To test the possibility that the hydrophobicity imparted by the long alkyl chain of C14 may favour the occurrence of some aggregation as the concentration increases, the titration was extended to larger molarities calculating the absorbance values at 404 nm instead of 424 nm (FIG. 2B).

A. aegypti larvae = experiment: Larvicidal efficacy of C14 porphyrin-loaded PFP; assay type: in vivo; details: 3 hours irradiation
Procedure: Food particles (70 mg) were added at the time of introduction of the larvae (n=50, see methods for details). Arithmetic means of percent dead, dying and living larvae after 3 hours irradiation (intensity 1.0-4.0 mW/cm^2). Error bars represent standard deviations, (n=3 replicates of 50 larvae each).
Trays containing 5 μM C14 porphyrin solution and 70 mg PFP (wherein PFP means powdered food pellet (PFP) with final particle diameter of 5-500 μm diameter obtained by crushing a standard food pellet for laboratory rodents, namely 4RF18 GLP (Mucedola Srl, Italy) using an electric blender and then sieving at mesh diameter 500 μm) were incubated at 28±2° C. for 5 days in the dark. The solution was then filtered using Whatman qualitative filter papers (Whatman International Ltd., UK). The eluted C14 solution was conserved, and the incubated PFP retained on the filter paper was washed with 10 ml distilled water before further use. Experimental groups were designed as follows: 1) filtered, C14-incubated PFP in spring water (group A); 2) C14 solution eluate, added with 70 mg fresh PFP (group B); 3) 5 μM C14 solution incubated without PFP for 5 days in the dark, added with 70 mg fresh PFP (group C); 4) freshly prepared 5 μM C14 solution, added with 70 mg PFP (group D); 5) spring water added with 70 mg fresh PFP (control group). Fifty larvae, fasted for 24 hours, were added to each tray and incubated in the dark for 12 hours. The treated or untreated PFP was added at the time of introduction of the larvae, in all the experimental groups. The trays were then exposed to a light intensity of 1.0-4.0 mW/cm^2 and dead, dying and living larvae were counted 1 to 3 hours after the beginning of the irradiation.

[3] = group B: C14 solution eluate with 70 mg fresh PFP

CCCCCCCCCCCCCC[n+]1ccc(-c2c3nc(c(-c4cc[n+](C)cc4)c4ccc([nH]4)c(-c4cc[n+](C)cc4)c4nc(c(-c5cc[n+](C)cc5)c5ccc2[nH]5)C=C4)C=C3)cc1.Cc1ccc(S(=O)(=O)[O-])cc1.Cc1ccc(S(=O)(=O)[O-])cc1.Cc1ccc(S(=O)(=O)[O-])cc1.Cc1ccc(S(=O)(=O)[O-])cc1 [C14, meso-tri(N-methyl-pyridyl), mono(N-tetradecyl-pyridyl)porphine]
% mortality by incubation time ([1]; 0.3 μM C14 solution with 6 mg untreated larval food, trays incubated 1 week): 100%
% mortality by incubation time ([1]; 0.3 μM C14 solution with 6 mg untreated larval food, trays incubated 2 weeks): 0%
% mortality by incubation time ([1]; 0.3 μM C14 solution with 6 mg untreated larval food, trays incubated 48 hours): 100%
residual activity ([1]; 0.3 μM solutions in water containing 6 mg untreated PFP): 1 week
% mortality by incubation time ([1]; 5 μM C14 solution with 6 mg untreated larval food, trays incubated 1 week): 100%
% mortality by incubation time ([1]; 5 μM C14 solution with 6 mg untreated larval food, trays incubated 2 weeks): 100%
% mortality by incubation time ([1]; 5 μM C14 solution with 6 mg untreated larval food, trays incubated 48 hours): 100%
residual activity ([1]; 5 μM solutions in water containing 6 mg untreated PFP): two weeks
concentration up to which a purely monomeric state is indicated [2]: up to 0.16 mM
dying larvae (A. aegypti larvae; [3]): 49.8%
mortality (A. aegypti larvae; [3]): 38.4%
mortality (A. aegypti larvae; group C: 5 μM C14 solution incubated 5 days in the dark without PFP, fresh PFP added): 78.2%
mortality (A. aegypti larvae; group D: freshly prepared 5 μM C14 solution with 70 mg PFP): 87.1%
